From ChEMBL document CHEMBL1201862, “PubChem BioAssay data set” (2004)
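Dose response: 5 concentrations. Exposure: 48 h. Format: 96-well plates. Endpoint: linear interpolation; highest concentration if not reached. At the GI50, growth is halved.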 Active and inactive are the calls of the source. Rule as the data show it: active = GI50 up to about 1.1 µM and inactive = higher.

Legend:
Experiment in all cases: inhibition of tumour cell growth, NCI panel, 48 h
MOLT-4 = system: MOLT-4
SF-539 = system: SF-539
SF-295 = system: SF-295
NCI-H23 = system: NCI-H23
SK-OV-3 = system: SK-OV-3
Hs-578T = system: Hs-578T
HOP-92 = system: HOP-92
U-251 = system: U-251
RXF 393 = system: RXF 393
SK-MEL-5 = system: SK-MEL-5
SR = system: SR
MDA-MB-231 = system: MDA-MB-231
IGROV-1 = system: IGROV-1
MCF7 = system: MCF7
HCT-116 = system: HCT-116
SF-268 = system: SF-268
CAKI-1 = system: CAKI-1
OVCAR-5 = system: OVCAR-5
TK-10 = system: TK-10
NCI-H226 = system: NCI-H226

Cc1cc(=O)[nH]c(-n2[nH]c3c(c2=O)CCCC3)n1
GI50 (MOLT-4): 60.8 µM (inactive) | GI50 (SF-539): 88.5 µM (inactive) | GI50 (SF-295): 46 µM (inactive) | GI50 (NCI-H23): 95.9 µM (inactive) | GI50 (SK-OV-3): 93.1 µM (inactive) | GI50 (Hs-578T): 92.9 µM (inactive) | GI50 (HOP-92): 31 µM (inactive) | GI50 (U-251): 58.5 µM (inactive) | GI50 (RXF 393): 14.3 µM (inactive) | GI50 (SK-MEL-5): 82 µM (inactive) | GI50 (SR): 63.1 µM (inactive) | GI50 (MDA-MB-231): 67.9 µM (inactive) | GI50 (IGROV-1): 97.3 µM (inactive) | GI50 (MCF7): 63 µM (inactive) | GI50 (HCT-116): 41.9 µM (inactive) | GI50 (SF-268): 28.2 µM (inactive) | GI50 (CAKI-1): 70.1 µM (inactive) | GI50 (OVCAR-5): 69 µM (inactive) | GI50 (TK-10): > 100 µM (inactive) | GI50 (NCI-H226): > 100 µM (inactive)

CN(CC(=O)O)Cc1c[nH]c2ccccc12
GI50 (MOLT-4): > 100 µM (inactive) | GI50 (SF-539): > 100 µM (inactive) | GI50 (SF-295): > 100 µM (inactive) | GI50 (NCI-H23): > 100 µM (inactive) | GI50 (SK-OV-3): > 100 µM (inactive) | GI50 (Hs-578T): > 100 µM (inactive) | GI50 (HOP-92): > 100 µM (inactive) | GI50 (U-251): > 100 µM (inactive) | GI50 (RXF 393): > 100 µM (inactive) | GI50 (SK-MEL-5): > 100 µM (inactive) | GI50 (SR): > 100 µM (inactive) | GI50 (MDA-MB-231): > 100 µM (inactive) | GI50 (IGROV-1): > 100 µM (inactive) | GI50 (MCF7): > 100 µM (inactive) | GI50 (HCT-116): > 100 µM (inactive) | GI50 (SF-268): > 100 µM (inactive) | GI50 (CAKI-1): > 100 µM (inactive) | GI50 (OVCAR-5): > 100 µM (inactive) | GI50 (TK-10): > 100 µM (inactive) | GI50 (NCI-H226): > 100 µM (inactive)

COC1=C2CC(C)CC(OC)[C@@H](OC(=O)CCN)[C@H](C)/C=C(\C)C(OC(N)=O)C(OC)/C=C\C=C(/C)C(=O)NC(=CC1=O)C2=O (stereo not given in full)
GI50 (MOLT-4): 0.483 µM (active) | GI50 (SF-539): 4.4 µM (inactive) | GI50 (SF-295): 16.5 µM (inactive) | GI50 (NCI-H23): 1.55 µM (inactive) | GI50 (SK-OV-3): 12.8 µM (inactive) | GI50 (Hs-578T): 3.73 µM (inactive) | GI50 (HOP-92): 0.697 µM (active) | GI50 (U-251): 2.34 µM (inactive) | GI50 (RXF 393): 1.56 µM (inactive) | GI50 (SK-MEL-5): 2.92 µM (inactive) | GI50 (SR): 1.26 µM (inactive) | GI50 (MDA-MB-231): 1.99 µM (inactive) | GI50 (IGROV-1): 1.29 µM (inactive) | GI50 (MCF7): 0.528 µM (active) | GI50 (HCT-116): 1.82 µM (inactive) | GI50 (SF-268): 9.06 µM (inactive) | GI50 (CAKI-1): 4.6 µM (inactive) | GI50 (OVCAR-5): 8.57 µM (inactive) | GI50 (TK-10): 3.54 µM (inactive) | GI50 (NCI-H226): 20.4 µM (inactive)

CSC1=C(C#N)C(=O)N(c2ccc(C)cc2)C(=O)C1C#N (stereo not given)
GI50 (MOLT-4): > 100 µM (inactive) | GI50 (SF-539): > 100 µM (inactive) | GI50 (SF-295): > 100 µM (inactive) | GI50 (NCI-H23): > 100 µM (inactive) | GI50 (SK-OV-3): > 100 µM (inactive) | GI50 (Hs-578T): 28.6 µM (inactive) | GI50 (HOP-92): 25 µM (inactive) | GI50 (U-251): > 100 µM (inactive) | GI50 (RXF 393): > 100 µM (inactive) | GI50 (SK-MEL-5): > 100 µM (inactive) | GI50 (SR): > 100 µM (inactive) | GI50 (MDA-MB-231): > 100 µM (inactive) | GI50 (IGROV-1): > 100 µM (inactive) | GI50 (MCF7): > 100 µM (inactive) | GI50 (HCT-116): > 100 µM (inactive) | GI50 (SF-268): > 100 µM (inactive) | GI50 (CAKI-1): 30.9 µM (inactive) | GI50 (OVCAR-5): > 100 µM (inactive) | GI50 (TK-10): > 100 µM (inactive) | GI50 (NCI-H226): > 100 µM (inactive)

COC(=O)/C=C\C(C#N)(C#N)/N=C/c1ccc(C)s1
GI50 (MOLT-4): 0.955 µM (active) | GI50 (SF-539): 4.63 µM (inactive) | GI50 (SF-295): 17.8 µM (inactive) | GI50 (NCI-H23): 2.23 µM (inactive) | GI50 (SK-OV-3): 15 µM (inactive) | GI50 (Hs-578T): 21.8 µM (inactive) | GI50 (HOP-92): 1.64 µM (inactive) | GI50 (U-251): 12.4 µM (inactive) | GI50 (RXF 393): 1.46 µM (inactive) | GI50 (SK-MEL-5): 6.92 µM (inactive) | GI50 (SR): 2.08 µM (inactive) | GI50 (MDA-MB-231): 5.61 µM (inactive) | GI50 (IGROV-1): 2 µM (inactive) | GI50 (MCF7): 1.49 µM (inactive) | GI50 (HCT-116): 1.32 µM (inactive) | GI50 (SF-268): 6.82 µM (inactive) | GI50 (CAKI-1): 1.94 µM (inactive) | GI50 (OVCAR-5): 6.53 µM (inactive) | GI50 (TK-10): 1.97 µM (inactive) | GI50 (NCI-H226): 16.7 µM (inactive)

Cc1cc(C)n(C(=O)CSc2nc3ccc(I)cc3c(=O)n2Cc2ccccc2)n1
GI50 (MOLT-4): > 100 µM (inactive) | GI50 (SF-539): 86.9 µM (inactive) | GI50 (SF-295): 29.8 µM (inactive) | GI50 (NCI-H23): 65.8 µM (inactive) | GI50 (SK-OV-3): 58.9 µM (inactive) | GI50 (Hs-578T): 20 µM (inactive) | GI50 (HOP-92): 15.5 µM (inactive) | GI50 (U-251): 35.8 µM (inactive) | GI50 (RXF 393): 26.9 µM (inactive) | GI50 (SK-MEL-5): 25.2 µM (inactive) | GI50 (SR): > 100 µM (inactive) | GI50 (MDA-MB-231): 23.3 µM (inactive) | GI50 (IGROV-1): 20 µM (inactive) | GI50 (MCF7): 96.6 µM (inactive) | GI50 (HCT-116): 57 µM (inactive) | GI50 (SF-268): 17.3 µM (inactive) | GI50 (CAKI-1): 4.63 µM (inactive) | GI50 (OVCAR-5): > 100 µM (inactive) | GI50 (TK-10): 41.6 µM (inactive) | GI50 (NCI-H226): 62.7 µM (inactive)

CC(=O)c1c(SCCN2CCOCC2)n(-c2ccccc2)c(=S)n(-c2ccccc2)c1=O
GI50 (MOLT-4): 16 µM (inactive) | GI50 (SF-539): 21.6 µM (inactive) | GI50 (SF-295): > 62.7 µM (inactive) | GI50 (NCI-H23): 27.6 µM (inactive) | GI50 (SK-OV-3): > 48.6 µM (inactive) | GI50 (Hs-578T): 39.7 µM (inactive) | GI50 (HOP-92): 15.3 µM (inactive) | GI50 (U-251): 31.2 µM (inactive) | GI50 (RXF 393): 11.9 µM (inactive) | GI50 (SK-MEL-5): 17.3 µM (inactive) | GI50 (SR): 28.3 µM (inactive) | GI50 (MDA-MB-231): 19.1 µM (inactive) | GI50 (IGROV-1): 16.9 µM (inactive) | GI50 (MCF7): 2.21 µM (inactive) | GI50 (HCT-116): 16.1 µM (inactive) | GI50 (SF-268): 20.2 µM (inactive) | GI50 (CAKI-1): 24.3 µM (inactive) | GI50 (OVCAR-5): > 100 µM (inactive) | GI50 (TK-10): 17.2 µM (inactive) | GI50 (NCI-H226): > 53.1 µM (inactive)

CCOP(=O)(OCC)C(Nc1cccc(F)c1)c1ccc(N(C)C)cc1 (stereo not given)
GI50 (MOLT-4): 40.4 µM (inactive) | GI50 (SF-539): > 100 µM (inactive) | GI50 (SF-295): 57 µM (inactive) | GI50 (NCI-H23): > 100 µM (inactive) | GI50 (SK-OV-3): > 100 µM (inactive) | GI50 (Hs-578T): > 100 µM (inactive) | GI50 (HOP-92): 18 µM (inactive) | GI50 (U-251): > 100 µM (inactive) | GI50 (RXF 393): > 100 µM (inactive) | GI50 (SK-MEL-5): 71 µM (inactive) | GI50 (SR): > 100 µM (inactive) | GI50 (MDA-MB-231): 78.2 µM (inactive) | GI50 (IGROV-1): > 100 µM (inactive) | GI50 (MCF7): > 100 µM (inactive) | GI50 (HCT-116): 48.5 µM (inactive) | GI50 (SF-268): > 100 µM (inactive) | GI50 (CAKI-1): > 100 µM (inactive) | GI50 (OVCAR-5): > 100 µM (inactive) | GI50 (TK-10): > 100 µM (inactive) | GI50 (NCI-H226): > 100 µM (inactive)

Cc1cc2c(c(O)c1-c1c(C)cc(O)c3c1C(=O)C=CC3=O)C(=O)C=CC2=O
GI50 (MOLT-4): 0.0224 µM (active) | GI50 (SF-539): 2.88 µM (inactive) | GI50 (SF-295): 16.7 µM (inactive) | GI50 (NCI-H23): 3.05 µM (inactive) | GI50 (SK-OV-3): 15.6 µM (inactive) | GI50 (Hs-578T): 3.07 µM (inactive) | GI50 (HOP-92): 0.413 µM (active) | GI50 (U-251): 4.03 µM (inactive) | GI50 (RXF 393): 0.757 µM (active) | GI50 (SK-MEL-5): 4.01 µM (inactive) | GI50 (SR): 0.043 µM (active) | GI50 (MDA-MB-231): 2 µM (inactive) | GI50 (IGROV-1): 2.26 µM (inactive) | GI50 (MCF7): 0.966 µM (active) | GI50 (HCT-116): 1.21 µM (inactive) | GI50 (SF-268): 1.92 µM (inactive) | GI50 (CAKI-1): 0.631 µM (active) | GI50 (OVCAR-5): 2.62 µM (inactive) | GI50 (TK-10): 0.855 µM (active) | GI50 (NCI-H226): 20.2 µM (inactive)

CC(C)c1ccc(/C=C2/C=C(c3ccc4ccccc4c3)OC2=O)cc1
GI50 (MOLT-4): 21.2 µM (inactive) | GI50 (SF-539): > 100 µM (inactive) | GI50 (SF-295): > 94.6 µM (inactive) | GI50 (NCI-H23): 38.7 µM (inactive) | GI50 (SK-OV-3): > 100 µM (inactive) | GI50 (Hs-578T): > 75.2 µM (inactive) | GI50 (HOP-92): 37.8 µM (inactive) | GI50 (U-251): 39.6 µM (inactive) | GI50 (RXF 393): > 81.1 µM (inactive) | GI50 (SK-MEL-5): 15.2 µM (inactive) | GI50 (SR): 5.94 µM (inactive) | GI50 (MDA-MB-231): 99.8 µM (inactive) | GI50 (IGROV-1): > 85.9 µM (inactive) | GI50 (MCF7): 88.5 µM (inactive) | GI50 (HCT-116): 68.4 µM (inactive) | GI50 (SF-268): > 100 µM (inactive) | GI50 (CAKI-1): > 82.4 µM (inactive) | GI50 (OVCAR-5): > 100 µM (inactive) | GI50 (TK-10): > 70.3 µM (inactive) | GI50 (NCI-H226): 73.5 µM (inactive)
